Ten compounds from ChEMBL document CHEMBL1811769, “Bioactive 11,20-epoxy-3,5(16)-diene briarane diterpenoids from the South China Sea gorgonian Dichotella gemmacea” (J Nat Prod, 2011) can be followed below.

One test concerns Zymoseptoria tritici. The test can be described thus: Antifungal activity against Septoria tritici at 0.05 mg by agar diffusion method. It is filed as functional. The conditions noted are these: for zone of inhibition at 50 µg/disc: read-out: DIZ. On the technique in general: Agar diffusion results depend on both activity and mobility in agar.
Another test concerns Microbotryum violaceum. The test can be described thus: Antifungal activity against Microbotryum violaceum at 0.05 mg by agar diffusion method. The test is classed as functional. The conditions noted are these: for zone of inhibition at 50 µg/disc: read-out: DIZ.
A further test deals with Priestia megaterium. The test can be described thus: Antibacterial activity against Bacillus megaterium at 0.05 mg by agar diffusion method. It is filed as functional. The conditions noted are these: for zone of inhibition at 50 µg/disc: read-out: DIZ.
The subject of another test is Escherichia coli. The test can be described thus: Antibacterial activity against Escherichia coli at 0.05 mg by agar diffusion method. The test is classed as functional. The conditions noted are these: for zone of inhibition at 50 µg/disc: read-out: DIZ.
The test system of another test is MG-63. The test can be described thus: Growth inhibition of human MG63 cells by MTT assay. It is filed as functional, cell-based. In general terms: Tetrazolium dyes change colour on reduction, which living cells bring about.
The test system of a further test is A549. The test can be described thus: Growth inhibition of human A549 cells by MTT assay. It is filed as functional, cell-based.

Structures are written as SMILES. The source made the active and inactive calls. The calls are words filed in the database; no cut-off is given here.

With `CN[C@@H]1[C@H](O[C@H]2[C@H](O[C@H]3[C@H](O)[C@@H](O)[C@H](N=C(N)N)[C@@H](O)[C@@H]3N=C(N)N)O[C@@H](C)[C@]2(O)C=O)O[C@@H](CO)[C@H](O)[C@H]1O` [STREPTOMYCIN], the zone of inhibition at 50 µg/disc in the test on Zymoseptoria tritici was 11 mm; with Microbotryum violaceum, 16 mm; with Priestia megaterium, 11 mm; in the test with Escherichia coli it was 18 mm.

Take `C=C1/C=C/[C@H](OC(C)=O)[C@@]2(C)[C@@H](OC(C)=O)C[C@@H](OC(C)=O)[C@]3(CO3)[C@@H]2[C@H](OC(C)=O)[C@]2(O)[C@@H](C)C(=O)O[C@H]2[C@H]1Cl` [GEMMACOLIDE H]: the “diameter of the inhibition zone (DIZ)” value in the test on Zymoseptoria tritici, with Microbotryum violaceum, in the test with Priestia megaterium and in the test on Escherichia coli was “inactive” each time. Also, the IC50 (usually the point on the concentration scale where inhibition reaches its midpoint) was 54 µM in the test with MG-63 and 47.3 µM in the test with A549.

With `C=C1/C=C/[C@H](OC(C)=O)[C@@]2(C)[C@@H](OC(C)=O)[C@@H](OC(=O)CC(C)C)[C@@H](OC(C)=O)[C@]3(CO3)[C@@H]2[C@H](OC(C)=O)[C@]2(O)[C@@H](C)C(=O)O[C@H]2[C@H]1Cl`, the “diameter of the inhibition zone (DIZ)” value in the test with Zymoseptoria tritici, with Microbotryum violaceum, in the test with Priestia megaterium and in the test on Escherichia coli was “inactive” each time.

For `C=C1/C=C/[C@H](OC(C)=O)[C@@]2(C)[C@@H](OC(C)=O)CC[C@]3(CO3)[C@@H]2[C@H](OC(C)=O)[C@]2(O)[C@@H](C)C(=O)O[C@H]2[C@H]1Cl`, the “diameter of the inhibition zone (DIZ)” value with Zymoseptoria tritici, in the test with Microbotryum violaceum, in the test on Priestia megaterium and in the test with Escherichia coli was “inactive” each time.

On to `C=C1/C=C/[C@H](OC(C)=O)[C@@]2(C)[C@@H](OC(C)=O)C[C@@H](OC(=O)CC(C)C)[C@]3(CO3)[C@@H]2[C@H](OC(C)=O)[C@]2(O)[C@@H](C)C(=O)O[C@H]2[C@H]1Cl` [GEMMACOLIDE I], for which the “diameter of the inhibition zone (DIZ)” value in the test on Zymoseptoria tritici, with Microbotryum violaceum, in the test with Priestia megaterium and with Escherichia coli was “inactive” in each case. Also, the IC50 in the test on MG-63 stood at 25 µM; with A549, 20.6 µM.

As to `C=C1/C=C/[C@H](OC(C)=O)[C@@]2(C)[C@@H](OC(C)=O)[C@@H](OC(C)=O)[C@@H](OC(=O)CC(C)C)[C@]3(CO3)[C@@H]2[C@H](OC(C)=O)[C@]2(O)[C@@H](C)C(=O)O[C@H]2[C@H]1Cl` [GEMMACOLIDE J], the concentration for half-maximal inhibition (IC50) in the test with MG-63 is 79.8 µM; in the test with A549, < 1.4 µM. Further, the zone of inhibition at 50 µg/disc in the test on Priestia megaterium was 16 mm.

Regarding `C=C1/C=C/[C@H](OC(C)=O)[C@@]2(C)[C@@H](OC(C)=O)[C@@H](OC(C)=O)[C@@H](OC(C)=O)[C@]3(CO3)[C@@H]2[C@H](OC(C)=O)[C@]2(O)[C@@H](C)C(=O)O[C@H]2[C@H]1Cl` [GEMMACOLIDE G], the “diameter of the inhibition zone (DIZ)” value with Zymoseptoria tritici, with Microbotryum violaceum, with Priestia megaterium and in the test on Escherichia coli was “inactive” throughout. Further, the IC50 with MG-63 stood at 38.4 µM; in the test with A549, 8.4 µM.

As to `COc1cccc2c1C(=O)c1c(O)c3c(c(O)c1C2=O)C[C@@](O)(C(=O)CO)C[C@@H]3O[C@H]1C[C@H](N)[C@H](O)[C@H](C)O1` [DOXORUBICIN], the IC50 in the test with MG-63 and in the test on A549 was 2.8 µM throughout.

Regarding `CC1(C)S[C@@H]2[C@H](NC(=O)Cc3ccccc3)C(=O)N2[C@H]1C(=O)O` [PENICILLIN G], the zone of inhibition at 50 µg/disc with Zymoseptoria tritici worked out at 12 mm; in the test on Microbotryum violaceum it was 14 mm; with Priestia megaterium it was 26 mm; with Escherichia coli, 8 mm.

Take `CC(=O)N1CCN(c2ccc(OCC3COC(Cn4ccnc4)(c4ccc(Cl)cc4Cl)O3)cc2)CC1` (stereo not drawn) [KETOCONAZOLE]: the zone of inhibition at 50 µg/disc came out at 25 mm in the test with Zymoseptoria tritici, 30 mm with Microbotryum violaceum, 18 mm in the test with Priestia megaterium and 18 mm in the test with Escherichia coli.
